Experimental data published in ChEMBL document CHEMBL3877275, “Dihydroorotate dehydrogenase: A drug target for the development of antimalarials” (Eur J Med Chem, 2017).

What was measured:
Plasmodium falciparum = test: Antiparasitic activity against Plasmodium falciparum NF54 infected in human erythrocytes by [3H]-hypoxanthine incorporation assay; format: functional, cell-based
[1] = Inhibition of Plasmodium falciparum DHODH
[2] = Selectivity ratio of IC50 for human DHODH to IC50 for Plasmodium falciparum DHODH
[3] = Inhibition of Plasmodium falciparum DHODH expressed in Escherichia coli using L-dihydroorotate as substrate by DCIP-based spectrophotometric method
[4] = Inhibition of Plasmodium falciparum DHODH using L-dihydroorotate as substrate after 20 mins by DCIP-based assay

| SMILES | IC50 (Plasmodium falciparum) [nM] | IC50 [3] [nM] | further results |
| --- | --- | --- | --- |
| COc1ccccc1NC(=O)Nc1cccc2ccccc12 | 5000 to 12000 | – | IC50 [1]: 20 to 800 nM; Ratio IC50 [2]: 70 to 12500 |
| CCOC(=O)C(=CNc1cccc(N(C)C)c1)C(=O)OCC | 5000 to 12000 | – | – |
| Cc1cc(Nc2cc(F)c(C(F)(F)F)c(F)c2)n2nc(C(F)(F)F)nc2n1 | – | 22 | – |
| Cc1cc(Nc2ccc(C(F)(F)F)c(F)c2)n2nc(C(F)(F)F)nc2n1 | – | 35 | – |
| COc1ccc2c(c1)ncn2-c1ccc(C(=O)NC2CC2)s1 | – | – | IC50 [4]: 22 nM |
| O=C(Nc1ccc(Cl)cc1Cl)c1ccc2ccccc2c1 | 5000 to 12000 | – | IC50 [1]: 20 to 800 nM; Ratio IC50 [2]: 70 to 12500 |
| N#Cc1cccc2c1ncn2-c1ccc(C(=O)NC2CC2)s1 | – | – | IC50 [4]: 50 nM |
| Cc1cc(Nc2cc(F)c(C(F)(F)F)c(F)c2)n2nc(C(C)(F)F)nc2n1 | – | 12 | – |
| Cc1cc(Nc2ccc(C(F)(F)F)cc2)n2nc(C(F)(F)F)nc2n1 | – | 35 | – |
| Cc1c(C(=O)Nc2cc(Cl)cc(Cl)c2)cccc1[N+](=O)[O-] | 5000 to 12000 | – | IC50 [1]: 20 to 800 nM; Ratio IC50 [2]: 70 to 12500 |
| Cc1cc(Nc2ccc(C(F)(F)F)cc2)n2ccnc2n1 | – | 770 | – |
| COc1cccc2c1ncn2-c1ccc(C(=O)NC2CC2)s1 | – | – | IC50 [4]: 44 nM |
